According to US20250114345A1, “COMPOUNDS AND COMPOSITIONS AS CBP/P300 DEGRADERS AND USES THEREOF” (Oncopia Therapeutics, Inc. d/b/a/ SK Life Science Labs, priority 2023, published 2025):

Target: T1, p300 (Homo sapiens, UniProt Q09472)
T1 construct: host or cells: A549 P300 HiBit cells
Test: P300 degradation, HiBit technology in A549 P300 HiBit cells (2 h)
Assay type: cell-based
Settings: 2 hrs post treatment; for Dmax: A549, A549 P300 HiBit cells; for DC50: A549 P300 HiBit cells
Procedure: p300 and CBP degradation potency and Dmax were determined using in cell western (ICW) assay technology in H1299 cells or HiBit technology in A549 HiBit cells.
A549 P300 HiBit and A549 CBP HiBit cells were plated in separate 384-well, TC treated, white-opaque, flat-bottomed microplate. Cells were plated at a cell density of 0.2×10^4 cells per well in assay media comprised of F-12K, 10% heat inactivated FBS, and 1% penicillin/streptomycin. Assay microplates containing HiBit cells were placed in a 37° C., 5% CO2, tissue culture incubator and left to equilibrate overnight. The next day cells were treated with serial dilutions of test compound made up of 10 mM stock solutions in DMSO. 384-Well plates containing treated cells were then placed back into a 37° C., 5% CO2, tissue culture incubator. Assay microplates containing A549 P300 HiBit cells were incubated for 2 hrs post treatment before P300 destruction was assessed, while microplates containing A549 CBP HiBit cells were incubated for 24 hrs post treatment before CBP destruction was determined. On the day of each assay time point, microplates were removed from the tissue culture incubator and prepared HiBit Lytic detection buffer (Promega, cat #N3O40) was added to each plate. Plates were covered with aluminum foil and incubated for ten minutes at room temperature on an orbital shaker. After incubation, luminescent signal of each plate was measured using the Envision instrument (Perkin Elmer).

T1 sequence (Q09472 whole entry): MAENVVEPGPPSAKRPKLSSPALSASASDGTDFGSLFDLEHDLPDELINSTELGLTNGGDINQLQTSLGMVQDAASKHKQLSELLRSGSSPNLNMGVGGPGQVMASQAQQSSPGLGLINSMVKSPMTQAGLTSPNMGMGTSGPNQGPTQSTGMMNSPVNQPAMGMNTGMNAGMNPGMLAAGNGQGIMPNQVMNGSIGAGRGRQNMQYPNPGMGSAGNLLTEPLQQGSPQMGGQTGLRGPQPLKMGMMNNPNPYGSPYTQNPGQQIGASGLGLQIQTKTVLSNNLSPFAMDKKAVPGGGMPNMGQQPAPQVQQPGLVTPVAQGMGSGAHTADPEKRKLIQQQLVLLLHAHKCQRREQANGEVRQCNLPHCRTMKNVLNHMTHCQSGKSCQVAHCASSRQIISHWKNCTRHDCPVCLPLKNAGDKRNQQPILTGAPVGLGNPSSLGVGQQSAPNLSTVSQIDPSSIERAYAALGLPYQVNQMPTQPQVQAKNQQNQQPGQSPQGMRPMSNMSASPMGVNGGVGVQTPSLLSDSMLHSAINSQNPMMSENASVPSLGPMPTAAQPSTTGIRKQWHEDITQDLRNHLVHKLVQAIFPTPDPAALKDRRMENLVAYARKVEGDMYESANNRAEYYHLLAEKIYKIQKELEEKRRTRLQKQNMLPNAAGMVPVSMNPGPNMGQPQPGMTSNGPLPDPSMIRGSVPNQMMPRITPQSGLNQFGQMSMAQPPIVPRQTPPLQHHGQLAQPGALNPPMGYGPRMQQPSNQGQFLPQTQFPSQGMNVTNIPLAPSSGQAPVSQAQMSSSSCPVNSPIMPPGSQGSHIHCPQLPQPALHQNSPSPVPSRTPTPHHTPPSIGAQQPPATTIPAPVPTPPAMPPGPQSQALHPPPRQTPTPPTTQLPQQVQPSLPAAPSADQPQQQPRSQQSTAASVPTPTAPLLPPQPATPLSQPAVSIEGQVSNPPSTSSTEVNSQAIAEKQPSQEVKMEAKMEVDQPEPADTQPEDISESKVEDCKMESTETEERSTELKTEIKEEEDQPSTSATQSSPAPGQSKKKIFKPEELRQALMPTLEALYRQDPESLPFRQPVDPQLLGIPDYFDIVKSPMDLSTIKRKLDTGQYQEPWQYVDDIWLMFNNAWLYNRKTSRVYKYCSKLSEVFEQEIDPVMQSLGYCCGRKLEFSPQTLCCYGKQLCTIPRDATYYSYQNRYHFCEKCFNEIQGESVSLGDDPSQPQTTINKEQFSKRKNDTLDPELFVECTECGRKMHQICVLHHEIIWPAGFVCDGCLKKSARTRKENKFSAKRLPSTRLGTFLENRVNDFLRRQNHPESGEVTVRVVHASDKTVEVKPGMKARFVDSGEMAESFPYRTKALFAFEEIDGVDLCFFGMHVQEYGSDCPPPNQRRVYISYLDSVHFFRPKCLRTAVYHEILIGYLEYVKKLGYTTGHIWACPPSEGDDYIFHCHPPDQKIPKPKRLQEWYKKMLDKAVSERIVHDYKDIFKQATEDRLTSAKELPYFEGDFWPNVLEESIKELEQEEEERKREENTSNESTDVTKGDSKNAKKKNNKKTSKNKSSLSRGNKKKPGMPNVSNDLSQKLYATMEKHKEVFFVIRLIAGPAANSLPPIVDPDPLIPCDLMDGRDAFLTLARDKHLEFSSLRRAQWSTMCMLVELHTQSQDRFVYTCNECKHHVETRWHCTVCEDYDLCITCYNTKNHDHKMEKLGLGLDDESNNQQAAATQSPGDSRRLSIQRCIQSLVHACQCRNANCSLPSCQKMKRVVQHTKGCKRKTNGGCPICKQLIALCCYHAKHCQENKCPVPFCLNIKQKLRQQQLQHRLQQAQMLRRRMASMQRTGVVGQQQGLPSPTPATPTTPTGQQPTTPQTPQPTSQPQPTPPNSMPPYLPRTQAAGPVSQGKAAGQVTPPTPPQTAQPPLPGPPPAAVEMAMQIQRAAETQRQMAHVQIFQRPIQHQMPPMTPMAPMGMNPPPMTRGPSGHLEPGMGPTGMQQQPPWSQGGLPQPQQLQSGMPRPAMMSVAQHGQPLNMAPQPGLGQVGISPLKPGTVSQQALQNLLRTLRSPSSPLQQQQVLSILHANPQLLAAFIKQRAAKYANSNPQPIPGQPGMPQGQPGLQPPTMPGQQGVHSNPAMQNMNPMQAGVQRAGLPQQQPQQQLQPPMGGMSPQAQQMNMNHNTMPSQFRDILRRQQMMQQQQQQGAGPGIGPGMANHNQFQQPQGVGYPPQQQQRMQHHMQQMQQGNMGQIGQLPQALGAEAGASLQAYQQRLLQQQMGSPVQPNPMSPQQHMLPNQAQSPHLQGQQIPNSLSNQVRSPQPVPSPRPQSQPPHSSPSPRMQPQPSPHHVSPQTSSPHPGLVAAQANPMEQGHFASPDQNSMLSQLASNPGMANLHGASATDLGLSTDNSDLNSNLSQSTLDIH

| Dmax | DC50 | Structure (SMILES) |
| --- | --- | --- |
| 40 to 59% | 10 to 99 nM | CC(C)c1cc(-c2cccc3cc(-c4ccc(C(=O)NCC#Cc5cc(C#N)c6occ(C7CCC(=O)NC7=O)c6c5)nc4)ncc23)cc2c1n(C)c(=O)n2C (stereo not drawn) [Example A233, N-(3-(7-cyano-3-(2,6-dioxopiperidin-3-yl)benzofuran-5-yl)prop-2-yn-1-yl)-5-(8-(7-isopropyl-1,3-dimethyl-2-oxo-2,3-dihydro-1H-benzo [d]imidazol-5-yl)isoquinolin-3-yl)picolinamide] |
| 40 to 59% | 10 to 99 nM | Cc1cc(-c2cc(F)c(Nc3cc(C4CCOCC4)c4c(c3)n(C)c(=O)n4C)cc2C(F)(F)F)cnc1C(=O)NCC#Cc1cc2c(C3CCC(=O)NC3=O)cccc2o1 (stereo not drawn) [Example A244, 5-(4-((1,3-dimethyl-2-oxo-7-(tetrahydro-2H-pyran-4-yl)-2,3-dihydro-1H-benzo[d]imidazol-5-yl)amino)-5-fluoro-2-(trifluoromethyl)phenyl)-N-(3-(4-(2,6-dioxopiperidin-3-yl)benzofuran-2-yl)prop-2-yn-1-yl)-3-methylpicolinamide] |
| > 80% | 1 to 9.9 nM | Cc1cc(-c2cc3c(cc2F)N(c2cccc4c2cc(C)c(=O)n4C)CCO3)cnc1C(=O)NCC#Cc1ccc2occ(C3CCC(=O)NC3=O)c2c1 (stereo not drawn) [Example B21, 5-(4-(1,3-dimethyl-2-oxo-1,2-dihydroquinolin-5-yl)-6-fluoro-3,4-dihydro-2H-benzo[b][1,4]oxazin-7-yl)-N-(3-(3-(2,6-dioxopiperidin-3-yl)benzofuran-5-yl)prop-2-yn-1-yl)-3-methylpicolinamide] |
| > 80% | 10 to 99 nM | CC(C)c1cc(-c2cccc3cc(-c4ccc(C(=O)NCC#Cc5ccc6c(C#N)nn(C7CCC(=O)NC7=O)c6c5)nc4)ncc23)cc2c1n(C)c(=O)n2C (stereo not drawn) [Example A7, N-(3-(3-Cyano-1-(2,6-dioxopiperidin-3-yl)-1H-indazol-6-yl)prop-2-yn-1-yl)-5-(8-(7-isopropyl-1,3-dimethyl-2-oxo-2,3-dihydro-1H-benzo[d]imidazol-5-yl)isoquinolin-3-yl)picolinamide] |
| < 20% | > 1000 nM | Cn1c(=O)oc2cc(N3CCOc4nc(-c5ccc(C(=O)NCC#Cc6ccc7occ(C8CCC(=O)NC8=O)c7c6)nc5)ncc43)ccc21 (stereo not drawn) [Example A144, N-(3-(3-(2,6-dioxo-piperidin-3-yl)benzofuran-5-yl)prop-2-yn-1-yl)-5-(5-(3-methyl-2-oxo-2,3-dihydrobenzo[d]oxazol-6-yl)-6,7-dihydro-5H-pyrimido [4,5-b][1,4]oxazin-2-yl)picolinamide] |
| < 20% | > 1000 nM | Cc1cc(-c2cc(N(C)C)c(N(C)c3cc(C4CCOCC4)c4c(c3)n(C)c(=O)n4C)cn2)cnc1C(=O)NCC#Cc1cc2c(C3CCC(=O)NC3=O)cccc2o1 (stereo not drawn) [Example A198, 5-((1,3-dimethyl-2-oxo-7-(tetrahydro-2H-pyran-4-yl)-2,3-dihydro-1H-benzo[d]imidazol-5-yl)(methyl)amino)-4-(dimethylamino)-N-(3-(4-(2,6-dioxopiperidin-3-yl)benzofuran-2-yl)prop-2-yn-1-yl)-5′-methyl-[2,3′-bipyridine]-6′-carboxamide] |
| 60 to 79% | 1 to 9.9 nM | Cc1cc2c(N3CCCc4nc(-c5ccc(C(=O)NCC#Cc6ccc7occ(C8CCC(=O)NC8=O)c7c6)nc5)ncc43)nc(N3CCC(F)CC3)cc2n(C)c1=O (stereo not drawn) [Example B27, N-(3-(3-(2,6-dioxopiperidin-3-yl)benzofuran-5-yl)prop-2-yn-1-yl)-5-(5-(7-(4-fluoro-piperidin-1-yl)-1,3-dimethyl-2-oxo-1,2-dihydro-1,6-naphthyridin-5-yl)-5,6,7,8-tetrahydropyrido[3,2-d]pyrimidin-2-yl) picolinamide] |
| 20 to 39% | 10 to 99 nM | Cn1c(=O)n(C)c2c(F)cc(N3CCOc4nc(-c5ccc(C(=O)NCC#Cc6cc7c(C8CCC(=O)NC8=O)cccc7o6)nc5)ncc43)cc21 (stereo not drawn) [Example A265, N-(3-(4-(2,6-dioxo-piperidin-3-yl)benzofuran-2-yl)prop-2-yn-1-yl)-5-(5-(7-fluoro-1,3-dimethyl-2-oxo-2,3-dihydro-1H-benzo[d]imidazol-5-yl)-6,7-dihydro-5H-pyrimido[4,5-b][1,4]oxazin-2-yl)picolinamide] |
| > 80% | 1 to 9.9 nM | Cn1c(=O)n(C)c2cc(-c3cccc4cc(-c5cnc(C(=O)NCC#Cc6ccc7occ(C8CCC(=O)NC8=O)c7c6)c(Cl)c5)ncc34)ccc21 (stereo not drawn) [Example A73, 3-chloro-5-(8-(1,3-dimethyl-2-oxo-2,3-dihydro-1H-benzo[d]imidazol-5-yl)isoquinolin-3-yl)-N-(3-(3-(2,6-dioxopiperidin-3-yl)benzofuran-5-yl)prop-2-yn-1-yl)picolinamide] |
| < 20% | > 1000 nM | Cc1cc(-c2ccc(N(C)c3cc4c(c(C(C)C)n3)n(C)c(=O)n4C)cn2)cnc1C(=O)NCC#Cc1ccc2occ(C3CCC(=O)NC3=O)c2c1 (stereo not drawn) [Example A60, N-(3-(3-(2,6-dioxopiperidin-3-yl)benzofuran-5-yl)prop-2-yn-1-yl)-5-((4-isopropyl-1,3-dimethyl-2-oxo-2,3-dihydro-1H-imidazo[4,5-c]pyridin-6-yl)(methyl)amino)-5′-methyl-[2,3′-bipyridine]-6′-carboxamide] |
| > 80% | 1 to 9.9 nM | Cc1cc(-c2ncc(N(C)c3cc(C4CCOCC4)c4c(c3)n(C)c(=O)n4C)cn2)cnc1C(=O)NCC#Cc1cc2c(C3CCC(=O)NC3=O)cccc2o1 (stereo not drawn) [Example A256, 5-(5-((1,3-dimethyl-2-oxo-7-(tetrahydro-2H-pyran-4-yl)-2,3-dihydro-1H-benzo[d]imidazol-5-yl)(methyl)amino)pyrimidin-2-yl)-N-(3-(4-(2,6-dioxo-piperidin-3-yl)benzo-furan-2-yl)prop-2-yn-1-yl)-3-methylpicolinamide] |
| > 80% | 1 to 9.9 nM | Cc1nc(-c2cnc(N(C)c3cc(C4CCOCC4)c4c(c3)n(C)c(=O)n4C)cn2)cnc1C(=O)NCC#Cc1cc2c(C3CCC(=O)NC3=O)nccc2o1 (stereo not drawn) [Example A200, 5′-((1,3-dimethyl-2-oxo-7-(tetrahydro-2H-pyran-4-yl)-2,3-dihydro-1H-benzo [d]imidazol-5-yl) (methyl)amino)-N-(3-(4-(2,6-dioxo-piperidin-3-yl)furo[3,2-c]pyridin-2-yl)prop-2-yn-1-yl)-6-methyl-[2,2′-bipyrazine]-5-carboxamide] |
| 20 to 39% | 10 to 99 nM | Cn1c(=O)n(C)c2ncc(N3CCOc4nc(-c5ccc(C(=O)NCC#Cc6cc7c(C8CCC(=O)NC8=O)cccc7o6)nc5)ncc43)cc21 (stereo not drawn) [Example A268, 5-(5-(1,3-dimethyl-2-oxo-2,3-dihydro-1H-imidazo[4,5-b]pyridin-6-yl)-6,7-dihydro-5H-pyrimido[4,5-b] [1,4]oxazin-2-yl)-N-(3-(4-(2,6-dioxopiperidin-3-yl)benzofuran-2-yl)prop-2-yn-1-yl)picolinamide] |
| < 20% | > 1000 nM | CC(C#Cc1ccc2occ(C3CCC(=O)NC3=O)c2c1)NC(=O)c1ccc(-c2ncc(N(C)c3cc(C(C)C)c4c(c3)n(C)c(=O)n4C)cn2)cn1 (stereo not drawn) [Example A105, N-(4-(3-(2,6-dioxo-piperidin-3-yl)benzofuran-5-yl)but-3-yn-2-yl)-5-(5-((7-isopropyl-1,3-dimethyl-2-oxo-2,3-dihydro-1H-benzo [d]imidazol-5-yl)(methyl)amino)pyrimidin-2-yl)picolinamide] |
| > 80% | 1 to 9.9 nM | CCN(c1cnc(-c2ccc(C(=O)NCC#Cc3cc4c(C5CCC(=O)NC5=O)cccc4o3)nc2)nc1)c1cc(C2CCOCC2)c2c(c1)n(C)c(=O)n2C (stereo not drawn) [Example A224, 5-(5-((1,3-dimethyl-2-oxo-7-(tetrahydro-2H-pyran-4-yl)-2,3-dihydro-1H-benzo[d]imidazol-5-yl)(ethyl)amino)pyrimidin-2-yl)-N-(3-(4-(2,6-dioxopiperidin-3-yl)benzofuran-2-yl)prop-2-yn-1-yl)picolinamide] |
| > 80% | 1 to 9.9 nM | COc1cc(-c2cc3cccc(-c4ccc5c(c4)n(C)c(=O)n5C)c3cn2)cnc1C(=O)NCC#Cc1ccc2occ(C3CCC(=O)NC3=O)c2c1 (stereo not drawn) [Example A148, 5-(8-(1,3-dimethyl-2-oxo-2,3-dihydro-1H-benzo[d]imidazol-5-yl)isoquinolin-3-yl)-N-(3-(3-(2,6-dioxo-piperidin-3-yl)benzofuran-5-yl)prop-2-yn-1-yl)-3-methoxypicolinamide] |
| > 80% | 1 to 9.9 nM | COC1CN(c2cc(N3CCOc4cc(-c5ccc(C(=O)NCC#Cc6ccc7occ(C8CCC(=O)NC8=O)c7c6)nc5)c(F)cc43)c3cc(C)c(=O)n(C)c3c2)C1 (stereo not drawn) [Example B113, N-(3-(3-(2,6-dioxopiperidin-3-yl)benzofuran-5-yl)prop-2-yn-1-yl)-5-(6-fluoro-4-(7-(3-methoxyazetidin-1-yl)-1,3-dimethyl-2-oxo-1,2-dihydroquinolin-5-yl)-3,4-dihydro-2H-benzo[b][1,4]oxazin-7-yl)picolinamide] |
| 20 to 39% | 10 to 99 nM | CC(C)c1cc(-c2cccc3cc(-c4ccc(C(=O)NCC#Cc5cc6c(ccn6C6CCC(=O)NC6=O)cn5)nc4)ncc23)cc2c1n(C)c(=O)n2C (stereo not drawn) [Example A22, N-(3-(1-(2,6-Dioxopiperidin-3-yl)-1H-pyrrolo[3,2-c]pyridin-6-yl)prop-2-yn-1-yl)-5-(8-(7-isopropyl-1,3-dimethyl-2-oxo-2,3-dihydro-1H-benzo[d]imidazol-5-yl)isoquinolin-3-yl)picolinamide] |
